Experimental data published in patent US20060148878A1, “Pseudopolymorphic forms of carvedilol” (priority 2001, published 2006).

Key:
[1] = active substance resorption / bioavailability of compositions containing carvedilol form IV; assay type: in vivo; settings: compositions with selected adjuvants, compared with formulations which contain carvedilol forms I or II
[2] = pH 1
[3] = investigations into the gastrointestinal resorption of carvedilol; assay type: in vivo; settings: compared with resorption in the stomach
[4] = resorption after peroral administration of rapid release carvedilol formulations; assay type: in vivo; settings: e.g. the commercial formulation
Description: In the case of the peroral administration of rapid release carvedilol formulations, e.g. the commercial formulation, resorption quotas of up to 80% are achieved, with a considerable part of the resorbed carvedilol being very rapidly metabolized.

[5] = dissolution in molten polyethylene glycol 6,000; assay type: physicochemical; settings: polyethylene glycol 6,000 melted at about 70° C.; carvedilol form I, II or IV dissolved
Method: Thus, carvedilol form I, II or IV can be dissolved in polyethylene glycol 6,000 which is melted at about 70° C. […] Further, the compositions in accordance with the invention can contain highly dispersed silicon dioxide as an anti-caking agent.

| Structure (SMILES) | bioavailability [1] | solubility in aqueous media [2] | solubility in the strongly acidic region [2] | resorption in the ileum and colon [3] | resorption quota [4] | concentration of carvedilol obtained in polyethylene glycol 6,000 [5] |
| --- | --- | --- | --- | --- | --- | --- |
| COc1ccccc1OCCNCC(O)COc1cccc2[nH]c3ccccc3c12 (racemic) [carvedilol form IV, (±)1-(4-carbazolyloxy)-3-[2-(2-methoxyphenoxy)ethylamino]-2-propanole] | improved bioavailability | – | – | – | – | – |
| COc1ccccc1OCCNCC(O)COc1cccc2[nH]c3ccccc3c12 (racemic) [carvedilol, (±)1-(4-carbazolyloxy)-3-[2-(2-methoxyphenoxy)ethylamino]-2-propanole] | – | 1 mg and 100 | very low solubility | only a fraction of the resorption in the stomach | up to 80% | up to 500 mg/ml |
